Measured values as given in US20240158446A1, “CYCLIC COMPOUND HAVING SELECTIVE INHIBITORY ACTION ON KRAS OVER HRAS AND NRAS” (CHUGAI SEIYAKU KABUSHIKI KAISHA, priority 2021, published 2024).
Read-outs that look alike come from different tables or passages of the source.

Key:
[1] = target: GDP-bound KRAS wild-type protein (Homo sapiens, UniProt P01116); test: Binding to KRAS by surface plasmon resonance (SPR), Single Cycle Kinetics
[2] = target: GDP-bound HRAS wild-type protein (Homo sapiens, UniProt P01112); test: Binding to HRAS by surface plasmon resonance (SPR), Single Cycle Kinetics; conditions: for HRAS/KRAS (ratio of KD value for HRAS to KD value for KRAS): GDP-bound HRAS wild-type protein vs GDP-bound KRAS wild-type protein
[3] = target: GDP-bound NRAS wild-type protein (Homo sapiens, UniProt P01111); test: Binding to NRAS by surface plasmon resonance (SPR), Single Cycle Kinetics; conditions: for NRAS/KRAS (ratio of KD value for NRAS to KD value for KRAS): GDP-bound NRAS wild-type protein vs GDP-bound KRAS wild-type protein
[4] = tested on: human lung cancer strain NCI-H441;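 also: cell proliferation inhibition after four days measured by CellTiter-Glo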
[5] = SPR, Single Cycle Kinetics, GDP-bound KRAS wild-type protein, read-out: KRAS KD
[6] = SPR, Single Cycle Kinetics, 1:1 binding model, GDP-bound KRAS wild-type protein, read-out: KRAS KD

Sequence of GDP-bound NRAS wild-type protein (P01111 whole entry): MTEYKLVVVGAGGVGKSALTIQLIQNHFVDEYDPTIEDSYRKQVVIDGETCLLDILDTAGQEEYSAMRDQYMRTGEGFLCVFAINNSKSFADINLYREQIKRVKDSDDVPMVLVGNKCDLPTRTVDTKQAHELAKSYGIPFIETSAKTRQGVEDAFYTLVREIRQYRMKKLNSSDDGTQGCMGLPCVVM
Sequence of GDP-bound HRAS wild-type protein (P01112 whole entry): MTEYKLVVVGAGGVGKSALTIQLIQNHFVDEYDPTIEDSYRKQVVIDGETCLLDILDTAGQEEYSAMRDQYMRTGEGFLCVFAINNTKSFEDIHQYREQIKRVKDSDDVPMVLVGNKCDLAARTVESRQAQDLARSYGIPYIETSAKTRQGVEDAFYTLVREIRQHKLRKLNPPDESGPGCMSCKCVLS
Sequence of GDP-bound KRAS wild-type protein (P01116 whole entry): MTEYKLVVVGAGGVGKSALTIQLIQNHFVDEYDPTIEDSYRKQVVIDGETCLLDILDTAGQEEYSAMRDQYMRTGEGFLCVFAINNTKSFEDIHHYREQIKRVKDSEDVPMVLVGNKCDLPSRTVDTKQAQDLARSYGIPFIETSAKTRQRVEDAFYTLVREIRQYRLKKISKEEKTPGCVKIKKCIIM

SMILES | Kd [1, 5] | IC50 [4] | HRAS/KRAS (ratio of KD value for HRAS to KD value for KRAS) ([2]; SPR) | NRAS/KRAS (ratio of KD value for NRAS to KD value for KRAS) ([3]; SPR) | Kd [1, 6] | HRAS/KRAS (ratio of KD value for HRAS to KD value for KRAS) ([2]; SPR, KD ratio class) | NRAS/KRAS (ratio of KD value for NRAS to KD value for KRAS) ([3]; SPR, KD ratio class) | also measured
CCO[C@@H]1C[C@H]2C(=O)NC3(CCC3)C(=O)N(C)[C@@H](C3CCCC3)C(=O)N(C)[C@H](C(=O)N(C)CC)CC(=O)N(C)[C@H]3CCCC/C=C/c4ccc(cc4)C[C@@H](C(=O)N(C)CC(=O)N[C@@H](CCc4cc(F)c(C(F)(F)F)c(F)c4)C(=O)N2C1)N1CC/C=C\C[C@@H](C1=O)N(C)C(=O)CN(C)C(=O)[C@H]([C@@H](C)CC)NC3=O [PP1827, (1S,7S,11R,13S,19S,22S,26S,29S,35S,37Z,47E)-19-cyclopentyl-7-[2-[3,5-difluoro-4-(trifluoromethyl)phenyl]ethyl]-11-ethoxy-N-ethyl-N,3,18,21,25,31,34-heptamethyl-29-[(1S)-1-methylpropyl]-2,5,8,14,17,20,24,27,30,33,55-undecaoxo-spiro[3,6,9,15,18,21,25,28,31,34,41-undecazapentacyclo[24.15.11.2^43,46.1^35,41.0^9,13]pentapentaconta-37,43(54),44,46(53),47-pentaene-16,1′-cyclobutane]-22-carboxamide] | 0.029 nM | 2.4 nM |  |  |  |  |  | HRAS/KRAS (KD ratio) ([2]; ratio of KD for GDP-bound HRAS wild-type protein to KD for KRAS, SPR): A (a compound having 10 or more and less than 20 is denoted as A); NRAS/KRAS (KD ratio) ([3]; ratio of KD for GDP-bound NRAS wild-type protein to KD for KRAS, SPR): A (a compound having 10 or more and less than 20 is denoted as A)
CCO[C@@H]1C[C@H]2C(=O)NC3(CCC3)C(=O)N(C)[C@@H](C3CCCC3)C(=O)N(C)[C@H](C(=O)N(C)C)CC(=O)N(C)[C@@H](Cc3ccc(C#N)cc3)C(=O)N[C@@H]([C@@H](C)CC)C(=O)N(C)CC(=O)N(C)[C@H]3CCCCCN(C3=O)[C@@H](Cc3ccc(C(F)(F)F)cc3)C(=O)N(C)CC(=O)N[C@@H](CCc3cc(F)c(C(F)(F)F)c(F)c3)C(=O)N2C1 [PP1173] | 0.18 nM | 70.8 nM | B (a compound having 3 or more and less than 10 is denoted as B) | B (a compound having 3 or more and less than 10 is denoted as B) |  |  |  | 
CCCOC[C@H]1C(=O)N[C@@H]([C@@H](C)CC)C(=O)N(C)CC(=O)N(C)[C@H]2C/C=C\CCN(C2=O)[C@@H](Cc2ccc(C)cc2)C(=O)N(C)CC(=O)N[C@@H](CCc2ccc(C(F)(F)F)c(OC)c2)C(=O)N2C[C@H](OCC)C[C@H]2C(=O)NC2(CC(C)(C)C2)C(=O)N(C)[C@@H](CC(C)(C)C)C(=O)N(C)[C@H](C(=O)N(C)C)CC(=O)N1C [PP2712] |  | 6.3 nM |  |  |  |  |  | Kd ([1]; SPR Single Cycle Kinetics, GDP-bound KRAS wild-type protein, 1:1 binding model, read-out: KRAS KD): 0.11 nM; HRAS/KRAS (ratio of KD value with respect to GDP-bound HRAS wild-type protein to KD value with respect to KRAS) ([2]; SPR KD ratio HRAS/KRAS, class symbols): B (a compound having 3 or more and less than 10 is denoted as B); NRAS/KRAS (ratio of KD value with respect to GDP-bound NRAS wild-type protein to KD value with respect to KRAS) ([3]; SPR KD ratio NRAS/KRAS, class symbols): A (a compound having 10 or more and less than 20 is denoted as A)
CCO[C@@H]1C[C@H]2C(=O)NC3(CCC3)C(=O)N(C)[C@@H](C3CCCC3)C(=O)N(C)[C@H](C(=O)N(C)C)CC(=O)N(C)[C@@H](CC)C(=O)N[C@@H]([C@@H](C)CC)C(=O)N(C)CC(=O)N(C)[C@H]3C/C=C\CCN(C3=O)[C@@H](Cc3ccc(C(F)(F)F)cc3)C(=O)N(C)CC(=O)N[C@@H](CCc3ccc(C(F)(F)F)c(C)c3)C(=O)N2C1 [PP1265] |  | 14.1 nM |  |  | 0.17 nM | B (a compound having 3 or more and less than 10 is denoted as B) | A (a compound having 10 or more and less than 20 is denoted as A) | 
CCO[C@@H]1C[C@H]2C(=O)NC3(CCC3)C(=O)N(C)[C@@H](C3CCCC3)C(=O)N(C)[C@H](C(=O)N(C)C)CC(=O)N(C)[C@@H](CC3CC3)C(=O)N[C@@H]([C@@H](C)CC)C(=O)N(C)CC(=O)N(C)[C@H]3C/C=C\CCN(C3=O)[C@@H](Cc3ccc(C(F)(F)F)cc3)C(=O)N(C)CC(=O)N[C@@H](CCc3ccc4sccc4c3)C(=O)N2C1 [PP1260] |  | 60.4 nM |  |  | 0.37 nM | A (a compound having 10 or more and less than 20 is denoted as A) | A (a compound having 10 or more and less than 20 is denoted as A) | 
CCO[C@@H]1C[C@H]2C(=O)NC3(CCC3)C(=O)N(C)[C@@H](C3CCCC3)C(=O)N(C)[C@H](C(=O)N3CCOCC3)CC(=O)N(C)[C@@H](Cc3ccsc3)C(=O)N[C@@H]([C@@H](C)CC)C(=O)N(C)CC(=O)N(C)[C@H]3CCCCCN(C3=O)[C@@H](Cc3ccc(F)cc3)C(=O)N(C)CC(=O)N[C@@H](CCc3cc(F)c(C(F)(F)F)c(F)c3)C(=O)N2C1 [PP1184] | 0.16 nM | 91.9 nM | B (a compound having 3 or more and less than 10 is denoted as B) | B (a compound having 3 or more and less than 10 is denoted as B) |  |  |  | 
CCO[C@@H]1C[C@H]2C(=O)NC3(CCCC3)C(=O)N(C)[C@@H](C3CCCC3)C(=O)N(C)[C@H](C(=O)N(C)C)CC(=O)N(C)[C@@H](C)C(=O)N[C@@H]([C@@H](C)CC)C(=O)N(C)CC(=O)N(C)[C@H]3C/C=C\CCN(C3=O)[C@@H](CC3CCCCC3)C(=O)N(C)CC(=O)N[C@@H](CCc3cc(F)c(C(F)(F)F)c(F)c3)C(=O)N2C1 [PP1470] |  | 111 nM |  |  | 0.22 nM | A (a compound having 10 or more and less than 20 is denoted as A) | A (a compound having 10 or more and less than 20 is denoted as A) | 
CCC[C@H]1C(=O)N[C@@H]([C@@H](C)CC)C(=O)N(C2CC2)CC(=O)N(C)[C@H]2C/C=C\CCN(C2=O)[C@@H](Cc2ccc(C)cc2)C(=O)N(C)CC(=O)N[C@@H](CCc2ccc(C(F)(F)F)c(OC)c2)C(=O)N2C[C@H](OCC)C[C@H]2C(=O)N(C)C2(CCC2)C(=O)N(C)[C@@H](C2CCCC2)C(=O)N(C)[C@H](C(=O)N2CCCC2)CC(=O)N1C [PP3098, (2S,8S,12R,14S,20S,23S,27S,30S,36S,38Z)-20-cyclopentyl-32-cyclopropyl-12-ethoxy-8-[2-[3-methoxy-4-(trifluoromethyl)phenyl]ethyl]-4,16,19,22,26,35-hexamethyl-30-[(1S)-1-methylpropyl]-27-propyl-2-(p-tolylmethyl)-23-(pyrrolidine-1-carbonyl)spiro[1,4,7,10,16,19,22,26,29,32,35-undecazatricyclo[34.5.1.0^10,14]dotetracont-38-ene-17,1′-cyclobutane]-3,6,9,15,18,21,25,28,31,34,42-undecone] | 0.24 nM |  | A (a compound having 10 or more and less than 20 is denoted as A) | A (a compound having 10 or more and less than 20 is denoted as A) |  |  |  | Kd ([1]; SPR, Single Cycle Kinetics, 1:1 binding model, read-out: KD value with respect to GDP-bound KRAS wild-type protein): 0.24 nM; ratio of the KD value with respect to GDP-bound HRAS wild-type protein to the KD value with respect to KRAS ([2]; SPR, KD(HRAS)/KD(KRAS)): A (a compound having 10 or more and less than 20 is denoted as A); ratio of the KD value with respect to GDP-bound NRAS wild-type protein to the KD value with respect to KRAS ([3]; SPR, KD(NRAS)/KD(KRAS)): A (a compound having 10 or more and less than 20 is denoted as A); IC50 ([4]; read-out: NCI-H441 cell proliferation inhibitory activity, 50% proliferation inhibitory concentration (IC50 value), NCI-H441, four days, CellTiter-Glo): 4.7 nM
CC[C@H](C)[C@@H]1NC(=O)[C@H](CC)N(C)C(=O)C[C@@H](C(=O)N(C)C)N(C)C(=O)[C@H](C2CCCC2)N(C)C(=O)C2(CCCC2)NC(=O)[C@@H]2CCCN2C(=O)[C@H](CCc2cc(F)c(C(F)(F)F)c(F)c2)NC(=O)CN(C)C(=O)[C@H](Cc2ccc(C(F)(F)F)cc2)N2CC/C=C\C[C@@H](C2=O)N(C)C(=O)CN(C)C1=O [PP1273, (2S,8S,14S,20S,23S,27S,30S,36S,38Z)-20-cyclopentyl-8-[2-[3,5-difluoro-4-(trifluoromethyl)phenyl]ethyl]-27-ethyl-N,N,4,19,22,26,32,35-octamethyl-30-[(1S)-1-methylpropyl]-3,6,9,15,18,21,25,28,31,34,42-undecaoxo-2-[[4-(trifluoromethyl)phenyl]methyl]spiro[1,4,7,10,16,19,22,26,29,32,35-undecazatricyclo[34.5.1.0^10,14]dotetracont-38-ene-17,1′-cyclopentane]-23-carboxamide] |  | 16.5 nM |  |  | 0.12 nM | B (a compound having 3 or more and less than 10 is denoted as B) | A (a compound having 10 or more and less than 20 is denoted as A) | 
CCO[C@@H]1C[C@H]2C(=O)NC3(CCC3)C(=O)N(C)[C@@H](C3CCCC3)C(=O)N(C)[C@H](C(=O)N3CCCC3)CC(=O)N(C)[C@@H](CC3CC3)C(=O)N[C@@H]([C@@H](C)CC)C(=O)N(C)CC(=O)N(C)[C@H]3C/C=C\CCN(C3=O)[C@@H](Cc3ccc(C)cc3)C(=O)N(C)CC(=O)N[C@@H](CCc3cc(F)c(C(F)(F)F)c(F)c3)C(=O)N2C1 [PP1409] |  | 43.5 nM |  |  | 0.21 nM | A (a compound having 10 or more and less than 20 is denoted as A) | A (a compound having 10 or more and less than 20 is denoted as A) | 
